# Species: Rattus norvegicus
# Test: Open TG-GATES - Regimen: Daily Repeat
# Type: toxicity, organism-based, Sprague-Dawley
# Parameters: regimen Daily Repeat, gender Male, age 6 weeks
# Conditions: in vivo, po, 20 mg/kg, route gavage, dose level Middle; for APTT / Bas / Eos / Fbg / Hb / Ht / Lym / MCH / MCHC / MCV / Mono / Neu / PT / Plat / RBC / Ret / WBC: tissue Blood; for KIDNEY_TOTAL: tissue Kidney; for LIVER: tissue Liver; for A/G / ALP / ALT / AST / BUN / CRE / Ca / Cl / DBIL / GLC / IP / K / LDH / Na / PL / RALB / TBIL / TC / TG / TP / gamma-GTP: tissue Plasma
smiles,measurement,setting,value
CN(CCOc1ccc(CC2SC(=O)NC2=O)cc1)c1ccccn1.O=C(O)/C=C\C(=O)O (centres undefined) [ROSIGLITAZONE MALEATE],TERMINAL_BW,"72 h, time 3 day",255.1 g
same,APTT,"72 h, time 3 day",16.4 s
same,Bas,"72 h, time 3 day",0%
same,Eos,"72 h, time 3 day",0.8%
same,Fbg,"72 h, time 3 day",231.2 mg/dL
same,Hb,"72 h, time 3 day",12.7 g/dL
same,Ht,"72 h, time 3 day",38.6%
same,Lym,"72 h, time 3 day",75.2%
same,MCH,"72 h, time 3 day",21 pg
same,MCHC,"72 h, time 3 day",32.8%
same,MCV,"72 h, time 3 day",64 fL
same,Mono,"72 h, time 3 day",8%
same,Neu,"72 h, time 3 day",16.6%
same,PT,"72 h, time 3 day",11.7 s
same,Plat,"72 h, time 3 day",136.2 x10_4/uL
same,RBC,"72 h, time 3 day",603.2 x10_4/ul
same,Ret,"72 h, time 3 day",7%
same,WBC,"72 h, time 3 day",83.2 x10_2/uL
same,KIDNEY_TOTAL,"72 h, time 3 day",0.7 g
same,LIVER,"72 h, time 3 day",12.7 g
same,A/G,"72 h, time 3 day",2.3
same,ALP,"72 h, time 3 day",1378.6 IU/L
same,ALT,"72 h, time 3 day",38.8 IU/L
same,AST,"72 h, time 3 day",67.8 IU/L
same,BUN,"72 h, time 3 day",16.4 mg/dL
same,CRE,"72 h, time 3 day",0.2 mg/dL
same,Ca,"72 h, time 3 day",11.7 mg/dL
same,Cl,"72 h, time 3 day",103.6 meq/L
same,DBIL,"72 h, time 3 day",0.012 mg/dL
same,GLC,"72 h, time 3 day",187.4 mg/dL
same,IP,"72 h, time 3 day",7.6 mg/dL
same,K,"72 h, time 3 day",4.3 meq/L
same,LDH,"72 h, time 3 day",93.4 IU/L
same,Na,"72 h, time 3 day",140 meq/L
same,PL,"72 h, time 3 day",147.4 mg/dL
same,RALB,"72 h, time 3 day",3.9 g/dL
same,TBIL,"72 h, time 3 day",0.04 mg/dL
same,TC,"72 h, time 3 day",80.4 mg/dL
same,TG,"72 h, time 3 day",79.6 mg/dL
same,TP,"72 h, time 3 day",5.6 g/dL
same,gamma-GTP,"72 h, time 3 day",0 IU/L
same,TERMINAL_BW,"[…], time 7 day",281.6 g
same,TERMINAL_BW,"[…], time 14 day",355.9 g
same,TERMINAL_BW,"[…], time 28 day",432 g
same,APTT,"[…], time 7 day",15.7 s
same,Bas,"[…], time 7 day",0%
same,Eos,"[…], time 7 day",0.8%
same,Fbg,"[…], time 7 day",225.6 mg/dL
same,Hb,"[…], time 7 day",12.6 g/dL
same,Ht,"[…], time 7 day",38.6%
same,Lym,"[…], time 7 day",76%
same,MCH,"[…], time 7 day",20.7 pg
same,MCHC,"[…], time 7 day",32.5%
same,MCV,"[…], time 7 day",63.5 fL
same,Mono,"[…], time 7 day",6%
same,Neu,"[…], time 7 day",17.4%
same,PT,"[…], time 7 day",11.9 s
same,Plat,"[…], time 7 day",123 x10_4/uL
same,RBC,"[…], time 7 day",608.4 x10_4/ul
same,Ret,"[…], time 7 day",6.5%
same,WBC,"[…], time 7 day",87.6 x10_2/uL
same,APTT,"[…], time 14 day",15.9 s
same,Bas,"[…], time 14 day",0%
same,Eos,"[…], time 14 day",0.8%
same,Fbg,"[…], time 14 day",240.4 mg/dL
same,Hb,"[…], time 14 day",13 g/dL
same,Ht,"[…], time 14 day",39.7%
same,Lym,"[…], time 14 day",79.8%
same,MCH,"[…], time 14 day",20.7 pg
same,MCHC,"[…], time 14 day",32.8%
same,MCV,"[…], time 14 day",63 fL
same,Mono,"[…], time 14 day",6%
same,Neu,"[…], time 14 day",13.6%
same,PT,"[…], time 14 day",11.6 s
same,Plat,"[…], time 14 day",110.8 x10_4/uL
same,RBC,"[…], time 14 day",631.8 x10_4/ul
same,Ret,"[…], time 14 day",3.7%
same,WBC,"[…], time 14 day",108.6 x10_2/uL
same,APTT,"[…], time 28 day",15.9 s
same,Bas,"[…], time 28 day",0%
same,Eos,"[…], time 28 day",1%
same,Fbg,"[…], time 28 day",252.2 mg/dL
same,Hb,"[…], time 28 day",13.9 g/dL
same,Ht,"[…], time 28 day",42.4%
same,Lym,"[…], time 28 day",81.8%
same,MCH,"[…], time 28 day",19.2 pg
same,MCHC,"[…], time 28 day",32.8%
same,MCV,"[…], time 28 day",58.6 fL
same,Mono,"[…], time 28 day",6%
same,Neu,"[…], time 28 day",11%
same,PT,"[…], time 28 day",11.9 s
same,Plat,"[…], time 28 day",110 x10_4/uL
same,RBC,"[…], time 28 day",725 x10_4/ul
same,Ret,"[…], time 28 day",2.6%
same,WBC,"[…], time 28 day",105 x10_2/uL
same,KIDNEY_TOTAL,"[…], time 7 day",0.8 g
same,KIDNEY_TOTAL,"[…], time 14 day",0.8 g
same,KIDNEY_TOTAL,"[…], time 28 day",0.8 g
same,LIVER,"[…], time 7 day",13.5 g
same,LIVER,"[…], time 14 day",16.1 g
same,LIVER,"[…], time 28 day",16.8 g
same,A/G,"[…], time 7 day",2.1
same,ALP,"[…], time 7 day",1428.6 IU/L
same,ALT,"[…], time 7 day",36.2 IU/L
same,AST,"[…], time 7 day",67.6 IU/L
same,BUN,"[…], time 7 day",18.8 mg/dL
same,CRE,"[…], time 7 day",0.4 mg/dL
same,Ca,"[…], time 7 day",11.3 mg/dL
same,Cl,"[…], time 7 day",104.8 meq/L
same,DBIL,"[…], time 7 day",0.01 mg/dL
same,GLC,"[…], time 7 day",171.2 mg/dL
same,IP,"[…], time 7 day",7.8 mg/dL
same,K,"[…], time 7 day",4.3 meq/L
same,LDH,"[…], time 7 day",92 IU/L
same,Na,"[…], time 7 day",141.2 meq/L
same,PL,"[…], time 7 day",134.8 mg/dL
same,RALB,"[…], time 7 day",3.8 g/dL
same,TBIL,"[…], time 7 day",0.032 mg/dL
same,TC,"[…], time 7 day",71.8 mg/dL
same,TG,"[…], time 7 day",55.2 mg/dL
same,TP,"[…], time 7 day",5.7 g/dL
same,gamma-GTP,"[…], time 7 day",0.4 IU/L
same,A/G,"[…], time 14 day",2
same,ALP,"[…], time 14 day",1500.8 IU/L
same,ALT,"[…], time 14 day",35.2 IU/L
same,AST,"[…], time 14 day",64.2 IU/L
same,BUN,"[…], time 14 day",19 mg/dL
same,CRE,"[…], time 14 day",0.4 mg/dL
same,Ca,"[…], time 14 day",11.1 mg/dL
same,Cl,"[…], time 14 day",106.4 meq/L
same,DBIL,"[…], time 14 day",0.01 mg/dL
same,GLC,"[…], time 14 day",188 mg/dL
same,IP,"[…], time 14 day",7.3 mg/dL
same,K,"[…], time 14 day",4.2 meq/L
same,LDH,"[…], time 14 day",63 IU/L
same,Na,"[…], time 14 day",143.8 meq/L
same,PL,"[…], time 14 day",134.4 mg/dL
same,RALB,"[…], time 14 day",3.8 g/dL
same,TBIL,"[…], time 14 day",0.032 mg/dL
same,TC,"[…], time 14 day",73.8 mg/dL
same,TG,"[…], time 14 day",69.4 mg/dL
same,TP,"[…], time 14 day",5.6 g/dL
same,gamma-GTP,"[…], time 14 day",1 IU/L
same,A/G,"[…], time 28 day",1.8
same,ALP,"[…], time 28 day",1013.6 IU/L
same,ALT,"[…], time 28 day",34 IU/L
same,AST,"[…], time 28 day",61.2 IU/L
same,BUN,"[…], time 28 day",17.8 mg/dL
same,CRE,"[…], time 28 day",0.4 mg/dL
same,Ca,"[…], time 28 day",10.6 mg/dL
same,Cl,"[…], time 28 day",105.8 meq/L
same,DBIL,"[…], time 28 day",0.01 mg/dL
same,GLC,"[…], time 28 day",180.4 mg/dL
same,IP,"[…], time 28 day",6.5 mg/dL
same,K,"[…], time 28 day",4.2 meq/L
same,LDH,"[…], time 28 day",87.2 IU/L
same,Na,"[…], time 28 day",140.8 meq/L
same,PL,"[…], time 28 day",122.8 mg/dL
same,RALB,"[…], time 28 day",3.7 g/dL
same,TBIL,"[…], time 28 day",0.032 mg/dL
same,TC,"[…], time 28 day",64.6 mg/dL
same,TG,"[…], time 28 day",65.2 mg/dL
same,TP,"[…], time 28 day",5.8 g/dL
same,gamma-GTP,"[…], time 28 day",0.4 IU/L
